Our source for the IC50 values is article PMC5319852 (Biochemistry, 2016).

The experiment deals with Plasmodium vivax geranylgeranyl diphosphate synthase (PvGGPPS) (Plasmodium vivax, UniProt A5K4U6). Put plainly: X-ray co-crystal structure. Type of experiment: biochemical.

A word on the IC50: it is the concentration that gives 50% inhibition. A high value points to weaker potency.

Molecules are shown by their SMILES.

The molecule `CCCCCCCCCCOc1cccc(COc2ccc([N+](=O)[O-])cc2C(=O)O)c1` [BPH-1186] registered an IC50 of 50 µM.
